Laboratory results taken from patent US7572913B2, “4-substituted piperidine derivatives” (Bioaxone Therapeutique Inc., priority 2004, dated 2009).
“And” between values parts separate entries of the source, which are not always exact repeats. Equal entries are not always repeated. Where two headings read alike, the source gives them in different places.

How the values were obtained:
Caco-2 cells = settings: for B − A/A − B Papp ratio: Caco-2 monolayer
Method: After incubation, samples are taken from the apical and basolateral compartment and the concentration of the test compound is determined by LCMS (liquid chromatography/mass spectroscopy).
Stock cultures are sub-cultured every 7 days when cells have reached 80-90% confluency. Studies are conducted with Caco-2 cells, used between passage 21 to 40. Cells are plated on Transwell™ inserts at a density of 1×10^4 cells/well in 24-well culture plates. Cells are incubated at 37° C. under 5% CO2 atmosphere, and media (MEM Earles medium containing 10% FBS, 0.1 mM non-essential amino acids and 1 mM sodium pyruvate) are changed 3 times per week. Cells are used for permeability studies between 20 to 22 days after seeding. On the day of the assay, cell monolayers are washed 3 times. Each wash consists of aspirating liquid from the apical (A) and basolateral (B) sides, and adding 0.5 and 1 mL, respectively, of fresh Dulbecco's phosphate-buffered saline with Mg^2+ and Ca^2+, pH 7.4 (PBS). After the final wash, a volt-ohm-meter is used to determine the trans-epithelial electrical resistance (TEER), a measure of the integrity of the monolayer. Cells are not be used if the TEER values are less than 200 ohms/cm^2. Working solutions of the test compounds are prepared in PBS. […] For each test compound and standard, apical to basolateral (A to B) and basolateral to apical (B to A) transport is measured. The final volume on the basolateral side is 1 mL; the final volume on the apical side is 0.3 mL. The test compound working solution or radiolabeled standard solution is added to the ‘donor’ side. Blank buffer is added to the ‘acceptor’ side. […] The permeability of each compound and control is measured by sampling 200μL of medium from the acceptor compartment at time zero and following 60 minutes of incubation. […] A 3 mL aliquot of liquid scintillant is added to the vials, and disintegrations per minute (dpm) are determined in a liquid scintillation counter. […] The permeability of Lucifer Yellow is measured by sampling 100 μL of medium from the basolateral compartment following 60 minutes of incubation. […]

ROCKII = molecular target: T1, ROCKII (Rattus norvegicus, UniProt Q62868); assay: ROCKII inhibition at a single concentration of 10 μM (selectivity histogram, Table 3); type: biochemical; settings: for Percent Rock inhibition at 10 micromolar: Table 3, compound at 10 micromolar
T1 construct: purchased Upstate Ltd. (United Kingdom)
T1 sequence (Q62868 whole entry): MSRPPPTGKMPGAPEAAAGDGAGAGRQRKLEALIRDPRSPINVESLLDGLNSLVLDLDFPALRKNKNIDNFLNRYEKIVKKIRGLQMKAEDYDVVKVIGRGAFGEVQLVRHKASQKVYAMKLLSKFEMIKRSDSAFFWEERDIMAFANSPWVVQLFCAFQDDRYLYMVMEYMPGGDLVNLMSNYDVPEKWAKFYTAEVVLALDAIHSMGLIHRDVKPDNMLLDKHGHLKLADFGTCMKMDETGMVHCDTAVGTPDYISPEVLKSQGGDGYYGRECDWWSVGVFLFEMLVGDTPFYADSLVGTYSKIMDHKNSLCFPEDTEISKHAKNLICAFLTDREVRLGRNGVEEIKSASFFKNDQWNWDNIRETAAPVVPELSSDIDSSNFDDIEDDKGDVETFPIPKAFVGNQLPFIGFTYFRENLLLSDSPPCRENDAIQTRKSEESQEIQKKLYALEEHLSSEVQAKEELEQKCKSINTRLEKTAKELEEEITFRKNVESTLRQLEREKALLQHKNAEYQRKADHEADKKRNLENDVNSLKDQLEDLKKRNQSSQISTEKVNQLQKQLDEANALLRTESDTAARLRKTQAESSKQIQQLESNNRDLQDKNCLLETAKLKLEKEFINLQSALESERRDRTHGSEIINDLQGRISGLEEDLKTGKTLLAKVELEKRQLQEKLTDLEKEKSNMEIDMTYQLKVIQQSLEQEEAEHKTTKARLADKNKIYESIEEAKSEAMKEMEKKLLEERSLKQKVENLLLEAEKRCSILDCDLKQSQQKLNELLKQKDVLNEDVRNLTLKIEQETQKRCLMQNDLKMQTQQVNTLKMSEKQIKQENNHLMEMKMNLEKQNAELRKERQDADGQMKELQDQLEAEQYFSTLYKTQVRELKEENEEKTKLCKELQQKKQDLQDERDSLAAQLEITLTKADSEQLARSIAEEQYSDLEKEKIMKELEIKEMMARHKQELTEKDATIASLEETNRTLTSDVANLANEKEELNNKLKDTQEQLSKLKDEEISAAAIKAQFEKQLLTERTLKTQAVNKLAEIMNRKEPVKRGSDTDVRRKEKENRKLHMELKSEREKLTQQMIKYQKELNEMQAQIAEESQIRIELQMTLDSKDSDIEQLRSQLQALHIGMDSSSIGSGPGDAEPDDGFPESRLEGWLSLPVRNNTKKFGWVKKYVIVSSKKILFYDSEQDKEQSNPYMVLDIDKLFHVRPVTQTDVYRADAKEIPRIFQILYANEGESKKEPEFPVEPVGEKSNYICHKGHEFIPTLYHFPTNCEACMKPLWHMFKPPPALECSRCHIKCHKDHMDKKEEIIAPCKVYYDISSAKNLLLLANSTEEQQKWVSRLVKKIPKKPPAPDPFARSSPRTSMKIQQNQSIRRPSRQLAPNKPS
Method: Compounds of this invention can be evaluated for kinase inhibition activity as solutions in 100% DMSO at a concentration of 10 μM added to GSK3β(h) and to ROCK-II(r) with ATP present at a concentration of 100 μM. Samples of compounds of this invention can be tested at 10 μM.
The data can be presented as relative ROCK kinase inhibition at a reference compound concentration of 3.5 uM and at 35 μM, wherein 0 signifies complete inhibition under the ATP concentration tested (100 μM). ROCK kinase activity is the opposite of ROCK kinase inhibition, and is compared with the GSKB kinase activity.
(§1) Experiments were done in duplicate. ATP was present at 100 μM in the assay.
(§2) The values were expressed in a percentage of inhibition of each kinase. Experiments were done in duplicate. ATP was present at 100 μM in the assay.
(§3) Percent net neurite outgrowth at 35 micromolar concentrations are presented in Table 3 together with percent Rock inhibition at 10 micromolar for three compounds designated BA-1043, BA-1049, and BA-1050. […] It should be noted that percent Rock activity is equal to 100% minus percent Rock inhibition.

NG108 cells = assay: Bioassay of neurite outgrowth in NG108 cells on plastic; type: cell-based; settings: compound at 35 micromolar
From the text: as §3

human plasma proteins = settings: for Bound (%) / Unbound (%): equilibrium dialysis 24 h, 37° C.
From the text: Plasma or serum protein binding assays using the equilibrium dialysis method are used to determine drug availability. Equilibrium dialysis studies using a 96-well microplate format or using conventional 2-chambered Teflon dialysis cells can be used to determine plasma or serum binding, and LC/MS/MS analysis is used for test compound quantification. The Teflon dialysis cell system is commonly used to determine the time to reach equilibrium, the fraction of a compound bound and unbound to plasma proteins and the effect of concentration on the extent of binding. Test compound quantification is performed by HPLC or LC/MS/MS analysis.
To perform equilibrium dialysis the following procedures can be used. To 0.990 mL of thawed plasma (37° C.), a 10 μL aliquot of the stock solutions is added for test compound concentrations of 35 μM. An appropriate volume of buffer (Dulbecco's phosphate buffered saline, pH 7.4) is spiked with each test compound at a concentration of 35 μM. Duplicate aliquots (130 μL) of each spiked plasma and buffer solution are collected prior to dialysis into labeled 1.5 mL polypropylene tubes and stored frozen at −40° C. […] Equilibrium dialysis is performed in a 96-well Teflon dialysis unit. Each well of the unit consists of two chambers separated by a vertically aligned dialysis membrane (regenerated cellulose) with a molecular weight cut-off of 12-14 KDa. The equilibrium dialysis membranes are first pre-soaked in deionized water for 30 min, then soaked in 20% ethanol for 20 min, followed by rinsing twice with deionized water. The equilibrium dialysis apparatus is assembled according to the manufacturer's directions. One chamber of each well is filled with 150 μL of blank buffer (to prevent membrane dehydration). Aliquots (150 μL) of spiked plasma or spiked buffer are added to the opposing chamber in each well. The top of the plate is sealed with an adhesive sealing film to prevent evaporation and to maintain constant pH during incubation. All dialysis experiments with the test compounds and standards are assessed using duplicate samples. The dialysis apparatus is incubated at 37° C. in an orbital shaker/incubator (Lab-Line Enviro) samples are collected following 24 hours of incubation. Samples containing the test compounds are stored frozen at −70° C. until analysis. Samples (100 μL) containing the radiolabels are added and mixed by vortex. The disintegrations per minute (dpm) in each vial are measured with a liquid scintillation counter. The fraction of each test compound and standard unbound (fu) to human serum proteins is calculated according to the following equation:
[formula] wherein Cbuffer and Cplasma represent the concentration of the compound measured in the buffer and plasma chambers, respectively, following dialysis. The fraction bound (fb) to the plasma proteins is determined as: 1−fu.

HUVEC cells [1] = assay: Endothelial cell migration, Boyden chamber with VEGF; type: cell-based, human; settings: 50 μM; 20 h; 10 ng/mL VEGF; fibronectin-coated transwells
Method: A common assay uses Boyden or Transwell chambers, a compartmentalized cell cultures system. Cells are plated in the upper compartment of the Transwell chamber, and the ability of a compound under evaluation to block cell migration through, for example the pores of a Fluoroblok membrane, to the bottom compartment is measured. […] Typically, a chemoattractant is added to the bottom well or compartment. In the case of endothelial cells, a useful chemoattractant is vascular endothelial growth factor (VEGF). […] Experiments can be performed in 24-well plates (individual insert or multiwell insert) or in 96-multiwell insert plates with appropriate correction for volume and cell density. […] Following incubation with the cell dye, fluorescence from invaded cells is read in a fluorescence plate reader with bottom reading capabilities at excitation/emission wavelengths of 485/530 nm without further manipulation. Only those labeled cells that have migrated through the pores of the Fluoroblok membrane will be detected.
The data may be expressed as either fluorescent units (FU) or as “fold migration”, i.e., the FU value of the cells migrating through the fibronectin coated insert membrane in response to a chemoattractant with inhibitor relative to the FU value of a control, i.e., without inhibitor. […]

HUVEC cells [2] = assay: HUVEC capillary tube formation on ECMatrix; type: cell-based, human; settings: for relative amount of tube formation: 15,000 HUVEC cells on ECMatrix, 6-8 h
From the text: HUVEC cells will form capillary tubes when plated on protein substrates composed of proteins found in the extracellular matrix. Typical substrates useful for experiments with HUVEC cells are Matrigel, fibronectin or collagen. Matrigel is composed of several proteins that make up the extracellular matrix. Extracelluar matrix substrates can be plated in tissue culture dishes as 3-dimensional cell culture substrates. Another reagent that can be used as a substrate is ECMatrix™ (Chemicon International, Temecula, Calif.), a reconstituted basement membrane matrix of proteins derived from the Engelbreth Holm-Swarm (EHS) mouse tumor. This substrate gels rapidly at 22-35° C. Thus, ECMatrix™ is thawed overnight on ice or in +4° C. A 96-well plate is pre-chilled, and 100μl of the ECMatrix solution is added to each well. The plate is incubated at 37° C. for at least one hour to allow the matrix solution to solidify. The HUVEC cells are harvested and resuspended in a standard cell growth media supplemented with endothelial cell growth supplements. The presence of serum (0.5-10%) is optional. EGM (endothelial cell growth media) can be used. The HUVEC cells are plated at a density of 5×10^3 to 1×10^4 cells per well onto the surface of the polymerized ECMatrix™, and then incubated overnight in a tissue-culture incubator. Cellular network structures are fully developed by 12 to 18 h, with the first signs apparent after 5-6 h. After 24 h, the cells begin to undergo apoptosis. To study the effect of anti-angiogenic factors, they can be added at the time of cell plating. Optional tissue culture vary depending on the cell type, age, and media growth conditions. The tubes are inspected under an inverted light microscope at 40×-200× magnification. Since there is a lack of contrast of the cellular networks, the cultures can be stained with any of the common cell staining procedures such as Diff-Quick or Wright-Giemsa or crystal-violet. The total capillary tube length measurement method is used to quantify the results. The total length of all the capillary tubes in several (3-10) view-fields is measured by Northern Eclipse software.
Photos are representative of 5 separate experiments.
Tranilast is used as a positive control. For this experiment, 15,000 HUVEC cells were plated on ECMatrix™ and incubated for 6-8 h alone before quantification. Results are presented as mean± SEM for one experiment analyzed in duplicate. […] It is used as a positive control.

[3] = patients treated for stroke; cited from earlier work
MSK1 = MSK1 (Homo sapiens, UniProt O75582); settings: FIG. 5; compound at 10 μM; ATP 100 μM; duplicate
Method: as §2

ROCKI = ROCKI (Homo sapiens, UniProt Q13464); settings: ATP 100 μM, duplicate
Chain of ROCKI (Q13464 whole entry): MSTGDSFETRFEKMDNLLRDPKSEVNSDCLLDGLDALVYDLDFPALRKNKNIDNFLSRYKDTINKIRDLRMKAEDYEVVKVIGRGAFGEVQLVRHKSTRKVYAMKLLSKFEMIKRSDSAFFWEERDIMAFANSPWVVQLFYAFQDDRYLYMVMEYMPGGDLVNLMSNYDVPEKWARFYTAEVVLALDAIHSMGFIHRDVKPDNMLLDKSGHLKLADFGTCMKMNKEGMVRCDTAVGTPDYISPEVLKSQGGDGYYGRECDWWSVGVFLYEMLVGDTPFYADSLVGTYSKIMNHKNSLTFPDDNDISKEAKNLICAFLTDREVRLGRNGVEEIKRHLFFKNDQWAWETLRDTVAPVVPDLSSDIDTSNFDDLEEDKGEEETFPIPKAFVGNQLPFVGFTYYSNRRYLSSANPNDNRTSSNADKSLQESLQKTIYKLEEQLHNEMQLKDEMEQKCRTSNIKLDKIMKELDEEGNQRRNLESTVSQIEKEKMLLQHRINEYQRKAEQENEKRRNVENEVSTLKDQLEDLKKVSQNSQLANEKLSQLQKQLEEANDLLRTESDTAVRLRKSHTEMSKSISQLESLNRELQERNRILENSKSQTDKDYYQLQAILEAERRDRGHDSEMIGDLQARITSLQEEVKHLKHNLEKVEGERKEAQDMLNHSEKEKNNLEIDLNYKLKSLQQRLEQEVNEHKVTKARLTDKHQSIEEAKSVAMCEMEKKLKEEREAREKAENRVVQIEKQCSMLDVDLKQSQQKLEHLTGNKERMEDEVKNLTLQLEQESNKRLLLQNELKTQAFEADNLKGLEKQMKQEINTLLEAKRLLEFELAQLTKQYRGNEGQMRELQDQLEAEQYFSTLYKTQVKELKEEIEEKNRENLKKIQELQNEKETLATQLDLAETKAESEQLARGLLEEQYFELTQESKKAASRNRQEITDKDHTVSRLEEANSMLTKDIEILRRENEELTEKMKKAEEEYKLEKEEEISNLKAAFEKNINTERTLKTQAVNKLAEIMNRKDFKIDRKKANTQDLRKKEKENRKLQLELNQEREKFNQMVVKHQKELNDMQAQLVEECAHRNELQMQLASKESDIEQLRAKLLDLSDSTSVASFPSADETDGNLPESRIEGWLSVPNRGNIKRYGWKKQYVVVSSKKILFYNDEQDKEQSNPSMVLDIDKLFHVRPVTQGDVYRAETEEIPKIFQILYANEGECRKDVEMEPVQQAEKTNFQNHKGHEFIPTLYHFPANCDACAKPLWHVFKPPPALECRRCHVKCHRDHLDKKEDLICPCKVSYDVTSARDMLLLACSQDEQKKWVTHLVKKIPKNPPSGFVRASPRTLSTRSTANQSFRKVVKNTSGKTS
Method: as §1, §2

PRK2 = PRK2 (Homo sapiens, UniProt Q16513); settings: FIG. 5; compound at 10 μM; ATP 100 μM; duplicate
Chain of PRK2 (Q16513 whole entry): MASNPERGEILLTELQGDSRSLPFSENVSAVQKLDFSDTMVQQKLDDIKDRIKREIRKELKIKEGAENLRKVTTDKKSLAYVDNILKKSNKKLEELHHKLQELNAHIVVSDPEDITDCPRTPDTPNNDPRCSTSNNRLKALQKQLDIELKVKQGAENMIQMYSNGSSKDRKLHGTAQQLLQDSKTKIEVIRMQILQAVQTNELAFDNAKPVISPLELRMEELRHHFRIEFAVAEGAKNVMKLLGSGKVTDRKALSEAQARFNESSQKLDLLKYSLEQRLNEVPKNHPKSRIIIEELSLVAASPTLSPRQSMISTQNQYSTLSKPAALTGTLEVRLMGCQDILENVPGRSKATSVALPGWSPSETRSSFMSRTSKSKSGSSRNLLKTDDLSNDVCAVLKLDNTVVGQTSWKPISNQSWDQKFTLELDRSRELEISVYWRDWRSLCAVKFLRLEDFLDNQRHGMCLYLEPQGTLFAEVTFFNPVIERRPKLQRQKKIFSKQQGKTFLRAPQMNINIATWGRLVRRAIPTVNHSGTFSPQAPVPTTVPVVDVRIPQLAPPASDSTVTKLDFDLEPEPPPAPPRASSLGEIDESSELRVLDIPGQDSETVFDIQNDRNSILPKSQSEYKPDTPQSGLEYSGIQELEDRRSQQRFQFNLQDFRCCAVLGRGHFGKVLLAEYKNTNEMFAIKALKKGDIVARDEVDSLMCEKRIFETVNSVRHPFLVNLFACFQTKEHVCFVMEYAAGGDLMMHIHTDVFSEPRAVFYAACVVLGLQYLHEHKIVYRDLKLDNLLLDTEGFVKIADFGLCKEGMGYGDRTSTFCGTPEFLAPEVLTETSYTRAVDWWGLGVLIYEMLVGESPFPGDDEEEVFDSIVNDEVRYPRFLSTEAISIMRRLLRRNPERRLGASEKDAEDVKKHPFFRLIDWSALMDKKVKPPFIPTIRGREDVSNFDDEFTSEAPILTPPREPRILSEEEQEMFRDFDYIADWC
Method: Samples can also be tested at 10 μM against CDK5/p35(h), JNK1α1(h), MAPK1(h), PKA(b), PKCα(h), PRK2(h), ROCK-II(r), […], PKBα(h), and Fyn(h) with ATP at 100 μM.
as §2

ROCK-II(h) = ROCK-II(h) (Homo sapiens, UniProt O75116); settings: for % Control (single replicate) / Activity (% Control): ATP 100 micromolar; for % Control (single replicate): individual replicates; for Activity (% Control): mean of duplicate
Chain of ROCK-II(h) (O75116 whole entry): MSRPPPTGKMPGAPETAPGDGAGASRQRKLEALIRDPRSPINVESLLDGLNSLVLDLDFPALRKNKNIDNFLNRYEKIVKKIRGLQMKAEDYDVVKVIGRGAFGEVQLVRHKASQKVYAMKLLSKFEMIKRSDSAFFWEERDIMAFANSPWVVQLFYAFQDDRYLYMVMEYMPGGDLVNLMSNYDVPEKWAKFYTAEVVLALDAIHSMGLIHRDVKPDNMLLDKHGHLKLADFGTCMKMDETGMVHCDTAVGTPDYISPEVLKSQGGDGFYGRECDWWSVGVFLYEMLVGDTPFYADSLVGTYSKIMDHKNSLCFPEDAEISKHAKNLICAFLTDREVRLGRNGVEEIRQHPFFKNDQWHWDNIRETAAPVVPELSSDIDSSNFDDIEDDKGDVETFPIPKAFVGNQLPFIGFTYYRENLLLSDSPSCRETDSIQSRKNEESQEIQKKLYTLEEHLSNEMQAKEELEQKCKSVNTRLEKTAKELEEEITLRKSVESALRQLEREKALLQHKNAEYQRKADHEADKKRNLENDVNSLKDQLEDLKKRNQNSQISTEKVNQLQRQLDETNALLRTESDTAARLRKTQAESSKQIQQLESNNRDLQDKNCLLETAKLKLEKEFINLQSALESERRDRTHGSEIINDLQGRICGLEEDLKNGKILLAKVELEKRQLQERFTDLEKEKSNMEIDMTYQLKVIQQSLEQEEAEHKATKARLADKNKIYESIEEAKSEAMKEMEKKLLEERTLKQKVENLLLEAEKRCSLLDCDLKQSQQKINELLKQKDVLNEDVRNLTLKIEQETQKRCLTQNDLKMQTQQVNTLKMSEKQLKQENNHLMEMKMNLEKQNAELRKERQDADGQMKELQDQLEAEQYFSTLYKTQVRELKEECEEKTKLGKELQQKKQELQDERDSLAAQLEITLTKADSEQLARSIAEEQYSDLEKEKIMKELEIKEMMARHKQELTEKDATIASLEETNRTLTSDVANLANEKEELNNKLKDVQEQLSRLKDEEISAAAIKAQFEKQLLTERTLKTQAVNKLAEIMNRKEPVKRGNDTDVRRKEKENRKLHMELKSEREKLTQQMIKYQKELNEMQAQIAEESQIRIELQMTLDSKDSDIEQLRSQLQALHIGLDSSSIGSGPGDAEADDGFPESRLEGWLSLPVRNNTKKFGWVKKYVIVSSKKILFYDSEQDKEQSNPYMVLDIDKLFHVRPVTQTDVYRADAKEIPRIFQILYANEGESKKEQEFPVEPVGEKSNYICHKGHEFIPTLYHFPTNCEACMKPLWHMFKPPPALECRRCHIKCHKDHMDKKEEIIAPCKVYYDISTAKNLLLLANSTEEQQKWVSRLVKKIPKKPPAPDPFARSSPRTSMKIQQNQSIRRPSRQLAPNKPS
Method: ROCK II (purchased from Upstate, Lake Placid, N.Y.) activity is assayed in 20 mM MOPS, pH 7.2, 25 mM β-glycerophosphate, 5 mM EGTA, 1 mM sodium orthovanadate, 1 mM dithiothreitol with dephosphorylated myelin basic protein (MBP, 0.2 mg/ml) as substrate with or without addition of a reference Rho kinase inhibitor. Activity assay reactions are performed for 30 min at 30° C. in 50 μl volumes using radiolabeled [32P] ATP (from Perkin-Elmer). The concentrations of ATP and magnesium chloride are 100 μM and 75 mM respectively. Assay reactions are initiated by adding Mg2+/ATP to each reaction mixture and are terminated by spotting 40 μl of each reaction mixture onto phosphocellulose paper (P81 paper, Whatman), followed by washes in 0.75% phosphoric acid to remove ATP followed by drying. The spotted paper is placed in scintillation cocktail and counted to measure 32P incorporation. Radioactivity is measured using a scintillation counter. Percent activity for a particular concentration of inhibitor is calculated as 100*(a−b)/(c−b), where a=cpm (enzyme+inhibitor), b=cpm (autophosphorylation of substrate and kinase) and c=cpm (enzyme−inhibitor). A dose-response chart is prepared for each inhibitor compound evaluated, then an IC50 (inhibitor concentration at 50% inhibition) determination is made as a measure of the potency of the compound as an inhibitor of Rho kinase. A plot of the log of concentration of test inhibitor compound (x axis) and the percent inhibition of kinase activity (y axis) is prepared. […] Experiments are done in duplicate or triplicate. ROCK II and dephosphorylated myelin basic protein (MBP) can be purchased from Upstate (Lake Placid, N.Y.). ATP is from Boehringer Mannheim and [γ-32P] ATP is from Perkin-Elmer. ROCK-II(h) is human ROCK-II.
Kinase inhibitors frequently compete with ATP binding and are ATP-competitive. Drug concentration required for 50% inhibition (IC50) depends on the concentration of ATP used in the assays.
An IC50 value for a compound of this invention can be determined from a plot of concentration of compound of this invention versus kinase activity of ROCK-II(h). The IC50 value for a compound of this invention can be expressed in units of micromolar, nanomolar, picomolar, and the like.
In the table, the concentration of the rho kinase inhibitor is micromolar, CPM is counts per minute, and SD is standard deviation. The rho kinase inhibitor activity was tested in duplicate. In each case, the kinase activity is expressed as a percentage of that in control incubations. IC50 values were derived by PRISM at Upstate. ATP concentration was 100 micromolar.

HEC-1B cells = settings: 72 hours incubation; different concentrations; Alamar Blue
Method: For this assay, cells are thawed and passaged at least one time before the experiment. Cells are grown in a culture dish in media supplemented with serum and supplements appropriate for the test cell line. When they reach logarithmic growth, the cells are trypsinized to detach them from the culture dish and are counted. The cell pellet is resuspended and adjusted to 2-5×10^4 cells/ml. A 96-well microplate is used for the experiment and cells are plated at a density of 1000 to 5000 cells/well in 100 μL of growth media. The seeding density is noted to ensure that the cells in the control wells are not overgrown after the total incubation time. […] At the end of the incubation period, the fluorescence intensity is read with a 96-well microplate reader (excitation 530-560 nm; emission 590 nm), with bottom reading. The fluorescence generated in the AlamarBlue™ assay can be stopped and stabilized by the addition of 3% SDS. […]
For each concentration of test article, a % growth is calculated using the following equation, wherein • T0=fluorescence units at the time of test article addition (time 0) • C=fluorescence units for control (no test article) • Ti=fluorescence unit for test article (different dilution)
Cadmium sulfate hydrate (CAD) was used as a positive control. Following treatment, the rate of proliferation was measured using the Alamar Blue assay.

[4] = test system: Caki cells (human renal cancer line) subcutaneous tumors; settings: 50 μL PBS with 40 μM E-23a injected into tumor every day for two weeks; 6 mice; vehicle control 304%
Method: An in vivo model to test anti-proliferative activity of test compounds is a subcutaneous (s.c.) tumor model. In this model, human cancer cells are seeded into mice by a subcutaneous injection. Typically immune-compromised mouse cell lines are used, such as CD-1 nude mice, to prevent a graft rejection response. The test compound is administered as a formulation in a pharmaceutically acceptable vehicle suitable for injection use, such as isotonic phosphate buffered saline (PBS), by injection into the tumor. Different dosing schedules can be tested and compared with mice receiving injection of vehicle control. Before implantation into an animal, tumor cells are expanded in their specific tissue culture medium. Medium is changed 2 to 3 times per week. […] The tumor growth is monitored twice a week. Tumor volume is determined with a digital caliper and calculated using the formula: width^2×length×0.5. The length is taken at the basis of the tumors between the two most distant points of the tumor mass, whereas the width is measured right-angled to the length. […] Tumor volume and animal body weight are recorded twice a week.
Caki cells, which are a human renal cancer line were grown in tissue culture. […] Tumors were evaluated after 2 weeks of treatment after the final injection.

Structure (SMILES): OC[C@@H](O)[C@@H](O)[C@H](O)[C@H](O)CO [[^3H]-Mannitol, reference compound]
- B − A/A − B Papp ratio (Caco-2 cells): 0.81

Structure (SMILES): CN(N)C1CCN(S(=O)(=O)c2cccc3cnccc23)CC1.Cl.Cl [BA-1043, N-(5′″-isoquinolinesulfonyl)-4-[N′-(1′-methyl)hydrazino]piperidine dihydrochloride]
- Percent Rock inhibition at 10 micromolar (ROCKII): 61%
- Percent Net Neurite Outgrowth at 35 micromolar (NG108 cells): 15.2%

Structure (SMILES): CC(C)NC[C@H](O)COc1cccc2ccccc12 [(S)-Propranolol, reference compound]
- Bound (%) (human plasma proteins): 91.3%
- Unbound (%) (human plasma proteins): 8.67%

Structure (SMILES): COc1ccc(C=CC(=O)Nc2ccccc2C(=O)O)cc1OC [Tranilast, N-(3′,4′-dimethoxycinnamoyl)anthranilic acid, reference compound]
- migration, % of the amount observed with Ctl+VEGF (HUVEC cells [1]): approximately 30%
- relative amount of tube formation (HUVEC cells [2]; 10 μg/mL): approximately 35 % relative to control
- relative amount of tube formation (HUVEC cells [2]; 50 μg/mL): approximately 30 % relative to control

Structure (SMILES): CCCC(N)C1CCN(S(=O)(=O)c2cccc3cnccc23)CC1.Cl.Cl (racemic) [BA-1050, (R,S)-N-(5″-isoquinolinesulfonyl)-4-[butan-1′-amino]piperidine dihydrochloride]
- Percent Rock inhibition at 10 micromolar (ROCKII): 79%
- Percent Net Neurite Outgrowth at 35 micromolar (NG108 cells): 20.2%

Structure (SMILES): CC1=NN(c2ccccc2)C(=O)C1 [Radicut, 3-methyl-1-phenyl-2-pyrazoline-5-one]
- adverse effect in clinical use (in words) [3]: kidney toxicity

Structure (SMILES): CC(N)C1CCN(S(=O)(=O)c2cccc3cnccc23)CC1.Cl.Cl (racemic) [E-23a, (R,S)-N-(5″-isoquinolinesulfonyl)-4-[ethan-1′-amino]piperidine dihydrochloride]
- percentage of inhibition of MSK1 (MSK1): 43%
- B − A/A − B Papp ratio (Caco-2 cells): 1.31
- permeability (in words) (Caco-2 cells; Caco-2 permeability assay): good permeability
- percentage of inhibition of ROCK I (ROCKI; FIG. 5, compound at 10 μM): 31%
- IC50 (ROCKI; read-out: IC50, inhibition of ROCKI): 20.6 µM
- percentage of inhibition of ROCKII (ROCKII; FIG. 5, compound at 10 μM, ATP 100 μM, duplicate): 83%
- Percent Rock inhibition at 10 micromolar (ROCKII): 97%
- migration, % of the amount observed with Ctl+VEGF (HUVEC cells [1]): approximately 40%
- percentage of inhibition of PRK2 (PRK2): 52%
- % Control (single replicate) (ROCK-II(h); BA-1049 0.01 μM, dihydrochloride): 96 % Control and 104 % Control
- Activity (% Control) (ROCK-II(h); BA-1049 0.01 μM): 100 % Control
- % Control (single replicate) (ROCK-II(h); BA-1049 0.03 μM, dihydrochloride): 109 % Control and 86 % Control
- Activity (% Control) (ROCK-II(h); BA-1049 0.03 μM): 98 % Control
- % Control (single replicate) (ROCK-II(h); BA-1049 0.1 μM, dihydrochloride): 86 % Control and 102 % Control
- Activity (% Control) (ROCK-II(h); BA-1049 0.1 μM): 94 % Control
- % Control (single replicate) (ROCK-II(h); BA-1049 0.3 μM, dihydrochloride): 62 % Control and 74 % Control
- Activity (% Control) (ROCK-II(h); BA-1049 0.3 μM): 68 % Control
- % Control (single replicate) (ROCK-II(h); BA-1049 1 μM, dihydrochloride): 45 % Control and 50 % Control
- Activity (% Control) (ROCK-II(h); BA-1049 1 μM): 48 % Control
- % Control (single replicate) (ROCK-II(h); BA-1049 3 μM, dihydrochloride): 25 % Control and 27 % Control
- Activity (% Control) (ROCK-II(h); BA-1049 3 μM): 26 % Control
- % Control (single replicate) (ROCK-II(h); BA-1049 10 μM, dihydrochloride): 8 % Control and 16 % Control
- Activity (% Control) (ROCK-II(h); BA-1049 10 μM): 12 % Control
- % Control (single replicate) (ROCK-II(h); BA-1049 30 μM): 4 % Control
- Activity (% Control) (ROCK-II(h); BA-1049 30 μM): 4 % Control
- % Control (single replicate) (ROCK-II(h); BA-1049 100 μM, dihydrochloride): 0 % Control and 5 % Control
- Activity (% Control) (ROCK-II(h); BA-1049 100 μM): 3 % Control
- IC50 (ROCK-II(h); read-out: IC50, inhibition of ROCK-II(h), ATP 100 μM, duplicate, derived by PRISM): 0.791 µM
- proliferation of HEC-1B cells (in words) (HEC-1B cells): reduced proliferation
- availability in plasma (in words) (human plasma proteins; equilibrium dialysis): relatively available in the unbound form
- Bound (%) (human plasma proteins): 7.26%
- Unbound (%) (human plasma proteins): 92.7%
- Percent Net Neurite Outgrowth at 35 micromolar (NG108 cells): 39.0%
- mean tumor size increase, % of initial tumor volume [4]: approximately 156 % of initial tumor volume
- relative amount of tube formation (HUVEC cells [2]; 10 μM): approximately 40 % relative to control
- relative amount of tube formation (HUVEC cells [2]; 50 μM): approximately 35 % relative to control
- HUVEC tube formation relative to control (in words) (HUVEC cells [2]; E-23a 10 and 50 μM): substantially reduced
